Converted amounts (≈) assume the structure as drawn.
Legend:
Assay type in all cases: cell-based
[1] = tested on: M. suipneumoniae ATCC 25095; assay: Anti-mycoplasmal in vitro MIC; settings: Mesomycoplasma hyopneumoniae, ATCC25095, 144 h, Friis broth solidified with 0.9% agarose, 6 days incubation at 37°C
[2] = tested on: M. hyosynoviae ATCC 25591; assay: Anti-mycoplasmal in vitro MIC; settings: 144 h, Friis broth solidified with 0.9% agarose, 6 days incubation at 37°C
[3] = tested on: M. suipneumoniae NCTC 10110; assay: Anti-mycoplasmal in vitro MIC; settings: Mesomycoplasma hyopneumoniae, NCTC10110, 144 h, Friis broth solidified with 0.9% agarose, 6 days incubation at 37°C
M. suipneumoniae Str. 11 = assay: Anti-mycoplasmal in vitro MIC; settings: Mesomycoplasma hyopneumoniae, 144 h, Friis broth solidified with 0.9% agarose, 6 days incubation at 37°C
M. hyorhinis ATCC 23234 = assay: Anti-mycoplasmal in vitro MIC; settings: Mesomycoplasma hyorhinis, ATCC23234, 144 h, Friis broth solidified with 0.9% agarose, 6 days incubation at 37°C
M. suipneumoniae TAM 6N = assay: Anti-mycoplasmal in vitro MIC; settings: Mesomycoplasma hyopneumoniae, TAM6N, 144 h, Friis broth solidified with 0.9% agarose, 6 days incubation at 37°C
M. suipneumoniae MS 16 = assay: Anti-mycoplasmal in vitro MIC; settings: Mesomycoplasma hyopneumoniae, MS16, 144 h, Friis broth solidified with 0.9% agarose, 6 days incubation at 37°C
M. suipneumoniae UCD 1 = assay: Anti-mycoplasmal in vitro MIC; settings: Mesomycoplasma hyopneumoniae, UCD1, 144 h, Friis broth solidified with 0.9% agarose, 6 days incubation at 37°C
M. suipneumoniae NB12 = assay: Anti-mycoplasmal in vitro MIC; settings: Mesomycoplasma hyopneumoniae, 144 h, Friis broth solidified with 0.9% agarose, 6 days incubation at 37°C
M. hyorhinis ATCC 25021 = assay: Anti-mycoplasmal in vitro MIC; settings: Mesomycoplasma hyorhinis, ATCC25021, 144 h, Friis broth solidified with 0.9% agarose, 6 days incubation at 37°C
Strep. dysgalactiae SPD1 = assay: Veterinary bacteria MIC; settings: Streptococcus dysgalactiae, Diagnostic Sensitivity Test Agar, 18 hours at 37°C
Procedure: (§1) The values were determined using a two fold serial dilutions.in Diagnostic Sensitivity Test Agar with an inoculum of 10^4 organisms and incubation for 18 hours at 37°C.

Past. multocida PA1 = assay: Veterinary bacteria MIC; settings: Pasteurella multocida, Diagnostic Sensitivity Test Agar, 18 hours at 37°C
Procedure: as §1

S. dublin S7 = assay: Veterinary bacteria MIC; settings: Salmonella enterica, Diagnostic Sensitivity Test Agar, 18 hours at 37°C
Procedure: as §1

Strep. uberis SPU1 = assay: Veterinary bacteria MIC; settings: Streptococcus uberis, Diagnostic Sensitivity Test Agar, 18 hours at 37°C
Procedure: as §1

E. Coli NCTC 10418 = assay: Veterinary bacteria MIC; settings: Escherichia coli, NCTC10418, Diagnostic Sensitivity Test Agar, 18 hours at 37°C
Procedure: as §1

Staph. aureus Oxford = assay: Veterinary bacteria MIC; settings: Staphylococcus aureus, Diagnostic Sensitivity Test Agar, 18 hours at 37°C
Procedure: as §1

Bord. bronchiseptica BO8 = assay: Veterinary bacteria MIC; settings: Bordetella bronchiseptica, Diagnostic Sensitivity Test Agar, 18 hours at 37°C
Procedure: as §1

Past. multocida PA2 = assay: Veterinary bacteria MIC; settings: Pasteurella multocida, Diagnostic Sensitivity Test Agar, 18 hours at 37°C
Procedure: as §1

Past. haemolytica PA5 = assay: Veterinary bacteria MIC; settings: Mannheimia haemolytica, Diagnostic Sensitivity Test Agar, 18 hours at 37°C
Procedure: as §1

S. typhimurium S18 = assay: Veterinary bacteria MIC; settings: Salmonella enterica, Diagnostic Sensitivity Test Agar, 18 hours at 37°C
Procedure: as §1

[4] = tested on: Erysipelothrix rhusiopathiae NCTC 8163; assay: Veterinary bacteria MIC; settings: NCTC8163, Diagnostic Sensitivity Test Agar, 18 hours at 37°C
Procedure: as §1

[5] = tested on: Strep. suis (group D) SPS11; assay: Veterinary bacteria MIC; settings: Streptococcus suis, Diagnostic Sensitivity Test Agar, 18 hours at 37°C
Procedure: as §1

Bord. bronchiseptica BO9 = assay: Veterinary bacteria MIC; settings: Bordetella bronchiseptica, Diagnostic Sensitivity Test Agar, 18 hours at 37°C
Procedure: as §1

Strep. agalactiae SPA1 = assay: Veterinary bacteria MIC; settings: Streptococcus agalactiae, Diagnostic Sensitivity Test Agar, 18 hours at 37°C
Procedure: as §1

E. Coli E1 = assay: Veterinary bacteria MIC; settings: Escherichia coli, Diagnostic Sensitivity Test Agar, 18 hours at 37°C
Procedure: as §1

Staph. aureus 152 = assay: Veterinary bacteria MIC; settings: Staphylococcus aureus, Diagnostic Sensitivity Test Agar, 18 hours at 37°C
Procedure: as §1

[6] = tested on: Corynebacterium pyogenes CY1; assay: Veterinary bacteria MIC; settings: Trueperella pyogenes, Diagnostic Sensitivity Test Agar, 18 hours at 37°C
Procedure: as §1

Staph. aureus B4 = assay: Veterinary bacteria MIC; settings: Staphylococcus aureus, Diagnostic Sensitivity Test Agar, 18 hours at 37°C
Procedure: as §1

Bacillus subtilis 6633 = assay: Human bacteria MIC; settings: nutrient agar with 5% chocolated horse blood, 18 hours at 37°C
Procedure: (§2) The values were determined by serial dilutions in nutrient agar with 5% chocolated horse blood after incubations for 18 hours at 37 °C.

Sarcina lutea 8340 = assay: Human bacteria MIC; settings: Micrococcus luteus, nutrient agar with 5% chocolated horse blood, 18 hours at 37°C
Procedure: as §2

[7] = tested on: Neisseria catarrhalis 1502; assay: Human bacteria MIC; settings: nutrient agar with 5% chocolated horse blood, 18 hours at 37°C
Procedure: as §2

E. coli ESS = assay: Human bacteria MIC; settings: Escherichia coli, nutrient agar with 5% chocolated horse blood, 18 hours at 37°C
Procedure: as §2

[8] = tested on: Corynebacterium xerosis 9755; assay: Human bacteria MIC; settings: nutrient agar with 5% chocolated horse blood, 18 hours at 37°C
Procedure: as §2

Staph. aureus W2827 = assay: Human bacteria MIC; settings: Staphylococcus aureus, nutrient agar with 5% chocolated horse blood, 18 hours at 37°C
Procedure: as §2

Staph. aureus Russell = assay: Human bacteria MIC; settings: Staphylococcus aureus, nutrient agar with 5% chocolated horse blood, 18 hours at 37°C
Procedure: as §2

K. aerogenes A = assay: Human bacteria MIC; settings: Klebsiella aerogenes, nutrient agar with 5% chocolated horse blood, 18 hours at 37°C
Procedure: as §2

SMILES	MIC [1] [µg/mL]	MIC [2] [µg/mL]	MIC [3] [µg/mL]	MIC (M. suipneumoniae Str. 11) [µg/mL]	MIC (M. hyorhinis ATCC 23234) [µg/mL]	MIC (M. suipneumoniae TAM 6N) [µg/mL]	MIC (M. suipneumoniae MS 16) [µg/mL]	MIC (M. suipneumoniae UCD 1) [µg/mL]	MIC (M. suipneumoniae NB12) [µg/mL]	MIC (M. hyorhinis ATCC 25021) [µg/mL]	MIC (Strep. dysgalactiae SPD1) [µg/mL]	MIC (Past. multocida PA1) [µg/mL]	MIC (S. dublin S7) [µg/mL]	MIC (Strep. uberis SPU1) [µg/mL]	MIC (E. Coli NCTC 10418) [µg/mL]	MIC (Staph. aureus Oxford) [µg/mL]	MIC (Bord. bronchiseptica BO8) [µg/mL]	MIC (Past. multocida PA2) [µg/mL]	MIC (Past. haemolytica PA5) [µg/mL]	MIC (S. typhimurium S18) [µg/mL]	other results
C/C(=C\C(=O)OC(C)c1ccc(C#N)cc1)CC1OCC(CC2OC2C(C)C(C)O)C(O)C1O (stereo not drawn) [Example 4, 1-(p-Cyanophenyl)ethyl monate A]	1 (≈ 2.11 µM)	0.1 (≈ 0.211 µM)	2.5 (≈ 5.28 µM)	1 (≈ 2.11 µM)	0.5 (≈ 1.06 µM)	2.5 (≈ 5.28 µM)	1 (≈ 2.11 µM)	1 (≈ 2.11 µM)	1 (≈ 2.11 µM)	0.5 (≈ 1.06 µM)	1.25 (≈ 2.64 µM)	10 (≈ 21.1 µM)	> 80	1.25 (≈ 2.64 µM)	> 80	2.5 (≈ 5.28 µM)	80 (≈ 169 µM)	< 0.019	40 (≈ 84.5 µM)	> 80	MIC [4]: 40 µg/mL (≈ 84.5 µM); MIC [5]: 20 µg/mL (≈ 42.2 µM); MIC (Bord. bronchiseptica BO9): 20 µg/mL (≈ 42.2 µM); MIC (Strep. agalactiae SPA1): 10 µg/mL (≈ 21.1 µM); MIC (E. Coli E1): > 80 µg/mL; MIC (Staph. aureus 152): 5 µg/mL (≈ 10.6 µM); MIC [6]: > 80 µg/mL; MIC (Staph. aureus B4): 10 µg/mL (≈ 21.1 µM); MIC (Bacillus subtilis 6633): 1 µg/mL (≈ 2.11 µM); MIC (Sarcina lutea 8340): > 100 µg/mL; MIC [7]: 0.5 µg/mL (≈ 1.06 µM); MIC (E. coli ESS): 2.5 µg/mL (≈ 5.28 µM); MIC [8]: > 100 µg/mL; MIC (Staph. aureus W2827): 5 µg/mL (≈ 10.6 µM); MIC (Staph. aureus Russell): 5 µg/mL (≈ 10.6 µM); MIC (K. aerogenes A): > 100 µg/mL
C/C(=C\C(=O)OCc1ccc(C#N)cc1)CC1OCC(CC2OC2C(C)C(C)O)C(O)C1O (stereo not drawn) [Example 3, p-Cyanobenzyl monate A]	0.25 (≈ 0.544 µM)	< 0.01	0.25 (≈ 0.544 µM)	0.1 (≈ 0.218 µM)	0.1 (≈ 0.218 µM)	0.25 (≈ 0.544 µM)	0.1 (≈ 0.218 µM)	0.25 (≈ 0.544 µM)	0.25 (≈ 0.544 µM)	0.1 (≈ 0.218 µM)	0.156 (≈ 0.339 µM)	0.625 (≈ 1.36 µM)	> 80	0.07 (≈ 0.152 µM)	80 (≈ 174 µM)	0.312 (≈ 0.679 µM)	20 (≈ 43.5 µM)	0.156 (≈ 0.339 µM)	2.5 (≈ 5.44 µM)	80 (≈ 174 µM)	MIC [4]: 40 µg/mL (≈ 87 µM); MIC [5]: 2.5 µg/mL (≈ 5.44 µM); MIC (Bord. bronchiseptica BO9): 10 µg/mL (≈ 21.8 µM); MIC (Strep. agalactiae SPA1): 1.25 µg/mL (≈ 2.72 µM); MIC (E. Coli E1): 80 µg/mL (≈ 174 µM); MIC (Staph. aureus 152): 0.312 µg/mL (≈ 0.679 µM); MIC [6]: > 80 µg/mL; MIC (Staph. aureus B4): 0.625 µg/mL (≈ 1.36 µM); MIC (Bacillus subtilis 6633): 0.1 µg/mL (≈ 0.218 µM); MIC (Sarcina lutea 8340): > 100 µg/mL; MIC [7]: 0.1 µg/mL (≈ 0.218 µM); MIC (E. coli ESS): 0.25 µg/mL (≈ 0.544 µM); MIC [8]: > 100 µg/mL; MIC (Staph. aureus W2827): 0.5 µg/mL (≈ 1.09 µM); MIC (Staph. aureus Russell): 0.5 µg/mL (≈ 1.09 µM); MIC (K. aerogenes A): 50 µg/mL (≈ 109 µM)
C/C(=C\C(=O)OCc1cc(C#N)cc(C#N)c1)CC1OCC(CC2OC2C(C)C(C)O)C(O)C1O (stereo not drawn) [Example 6, 3,5-Dicyanobenzyl monate A]	0.05 (≈ 0.103 µM)	0.1 (≈ 0.206 µM)	0.1 (≈ 0.206 µM)	0.05 (≈ 0.103 µM)	0.05 (≈ 0.103 µM)	0.1 (≈ 0.206 µM)	0.05 (≈ 0.103 µM)	0.1 (≈ 0.206 µM)	0.1 (≈ 0.206 µM)	0.05 (≈ 0.103 µM)	0.625 (≈ 1.29 µM)	5 (≈ 10.3 µM)	> 80	0.312 (≈ 0.644 µM)	> 80	5 (≈ 10.3 µM)	80 (≈ 165 µM)	0.625 (≈ 1.29 µM)	10 (≈ 20.6 µM)	> 80	MIC [4]: 80 µg/mL (≈ 165 µM); MIC [5]: 40 µg/mL (≈ 82.6 µM); MIC (Bord. bronchiseptica BO9): 40 µg/mL (≈ 82.6 µM); MIC (Strep. agalactiae SPA1): 0.625 µg/mL (≈ 1.29 µM); MIC (E. Coli E1): > 80 µg/mL; MIC (Staph. aureus 152): 5 µg/mL (≈ 10.3 µM); MIC [6]: > 80 µg/mL; MIC (Staph. aureus B4): 5 µg/mL (≈ 10.3 µM); MIC (Bacillus subtilis 6633): 2.5 µg/mL (≈ 5.16 µM); MIC (Sarcina lutea 8340): > 100 µg/mL; MIC [7]: 0.5 µg/mL (≈ 1.03 µM); MIC (E. coli ESS): 5 µg/mL (≈ 10.3 µM); MIC [8]: > 100 µg/mL; MIC (Staph. aureus W2827): 5 µg/mL (≈ 10.3 µM); MIC (Staph. aureus Russell): 5 µg/mL (≈ 10.3 µM); MIC (K. aerogenes A): > 100 µg/mL

Reference: EP0052437A1, “Antibacterial compounds, processes for their preparation and compositions containing them” (BEECHAM GROUP PLC, priority 1980, dated 1982)
